{
  "source": "paper PMC5691318",
  "about": "(Journal of the American Chemical Society, 2017)",
  "key": {"[1]": {"test_system": "14-3-3 with the protein kinase C-Raf", "details": "ref [48]; cited from earlier work"}, "[2]": {"test_system": "Arf1/Arf1GAP", "details": "ref [48],[49]; cited from earlier work"}, "[3]": {"test_system": "14-3-3/C-Raf peptide", "details": "fluorescence polarization, labeled peptide; ref [31]; cited from earlier work"}, "[4]": {"test_system": "14-3-3/Exoenzyme S peptide", "details": "fluorescence polarization, labeled peptide; ref [31]; cited from earlier work"}, "[5]": {"test_system": "14-3-3ζ/Cdc25CpS216 interaction", "assay": "ITC: reinforcement of the 14-3-3ζ/Cdc25CpS216 interaction by CLR01", "type": "binding", "details": "250 μM or 1.5 mM CLR01 vs no CLR01"}, "[6]": {"assay": "Potentiometric pKa determination", "type": "physicochemical", "details": "determined potentiometrically"}, "[7]": {"target": "T1, 14-3-3ζ (Homo sapiens, UniProt P63104)", "T1 sequence (P63104 1-230)": "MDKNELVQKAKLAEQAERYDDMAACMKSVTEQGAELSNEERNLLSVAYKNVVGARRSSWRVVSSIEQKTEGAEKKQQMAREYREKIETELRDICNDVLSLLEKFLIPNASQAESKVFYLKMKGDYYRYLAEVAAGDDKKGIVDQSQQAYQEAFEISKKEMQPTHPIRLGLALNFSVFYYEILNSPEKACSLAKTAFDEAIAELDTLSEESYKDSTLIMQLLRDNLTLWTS", "T1 sequence (P30307 207-244 partner)": "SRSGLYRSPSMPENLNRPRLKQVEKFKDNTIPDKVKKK", "assay": "Isothermal titration calorimetry", "type": "binding"}, "[8]": {"test_system": "14-3-3 with the chloride channel CFTR", "details": "ref [18]; cited from earlier work"}, "[9]": {"test_system": "TASK3 plasma membrane localization", "details": "ref [47]; cited from earlier work"}, "[10]": {"test_system": "14-3-3 proteins with the potassium channel TASK3", "details": "ref [47]; cited from earlier work"}, "[11]": {"target": "T2, Cdc25CpS216 peptide (Homo sapiens, not fully specified; phosphoSer216, 250 μM CLR01)", "T2 chain": "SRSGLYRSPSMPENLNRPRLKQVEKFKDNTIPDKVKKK", "assay": "ITC"}, "[12]": {"target": "T3, Cdc25CpS216 peptide (Homo sapiens, not fully specified; phosphoSer216)", "T3 chain": "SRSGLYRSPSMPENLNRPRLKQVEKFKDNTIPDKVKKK", "assay": "ITC"}, "[13]": {"target": "T4, Cdc25CpS216 peptide (Homo sapiens, not fully specified; phosphoSer216, 1.5 mM CLR01)", "T4 chain": "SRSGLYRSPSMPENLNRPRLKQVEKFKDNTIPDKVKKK", "assay": "ITC"}},
  "note": "Where a SMILES comes first, the peptide text is derived from it. [ ]: non-standard residue; d: D form. pS = N[C@@H](COP(=O)(O)O)C(=O)O",
  "data": [
    {"molecule": "COCC1O[C@H](O[C@@H]2C3=C(C(C)C)CC[C@]3(C)/C=C3\\[C@@H](CC[C@]3(O)COC)[C@@H](C)[C@H]2O)C(O)C2OC3O[C@]12O[C@@]3(C)C1CO1", "note": "(stereo partly shown) [cotylenin A]", "values": [
      {"measurement": "stabilization factor of 14-3-3 binding with C-Raf", "setting": "[1]", "result": 17}
    ]},
    {"molecule": "C[C@H]1CCC/C=C/[C@@H]2C[C@H](O)C[C@H]2[C@H](O)/C=C/C(=O)O1", "note": "[brefeldin A]", "values": [
      {"measurement": "stabilization factor of target protein complex Arf1/Arf1GAP", "setting": "[2]", "result": 10}
    ]},
    {"molecule": "O=P(O)(O)Oc1c2c(c(OP(=O)(O)O)c3c1C1CC3c3cc4c(cc31)C1CC4c3ccccc31)C1CC2c2cc3c(cc21)C1CC3c2ccccc21", "note": "[CLR01]", "values": [
      {"measurement": "effect on binding of C-Raf-derived peptide to 14-3-3", "setting": "[3]", "result": "inhibited"},
      {"measurement": "effect on binding of Exoenzyme S-derived peptide to 14-3-3", "setting": "[4]", "result": "inhibited"},
      {"measurement": "reinforcement of the 14-3-3ζ/Cdc25CpS216 interaction", "setting": "[5]", "result": "2–3 fold"},
      {"measurement": "second pKa value of the hydrogen phosphate group", "setting": "[6]", "result": 7.4}
    ]},
    {"molecule": "CC[C@H](C)[C@H](NC(=O)[C@@H](NC(=O)[C@H](CC(N)=O)NC(=O)[C@H](CC(=O)O)NC(=O)[C@H](CCCCN)NC(=O)[C@H](Cc1ccccc1)NC(=O)[C@H](CCCCN)NC(=O)[C@H](CCC(=O)O)NC(=O)[C@@H](NC(=O)[C@H](CCC(N)=O)NC(=O)[C@H](CCCCN)NC(=O)[C@H](CC(C)C)NC(=O)[C@H](CCCNC(=N)N)NC(=O)[C@@H]1CCCN1C(=O)[C@H](CCCNC(=N)N)NC(=O)[C@H](CC(N)=O)NC(=O)[C@H](CC(C)C)NC(=O)[C@H](CC(N)=O)NC(=O)[C@H](CCC(=O)O)NC(=O)[C@@H]1CCCN1C(=O)[C@H](CCSC)NC(=O)[C@H](COP(=O)(O)O)NC(=O)[C@@H]1CCCN1C(=O)[C@H](CO)NC(=O)[C@H](CCCNC(=N)N)NC(=O)[C@H](Cc1ccc(O)cc1)NC(=O)[C@H](CC(C)C)NC(=O)CNC(=O)[C@H](CO)NC(=O)[C@H](CCCNC(=N)N)NC(=O)[C@@H](N)CO)C(C)C)[C@@H](C)O)C(=O)N1CCC[C@H]1C(=O)N[C@@H](CC(=O)O)C(=O)N[C@@H](CCCCN)C(=O)N[C@H](C(=O)N[C@@H](CCCCN)C(=O)N[C@@H](CCCCN)C(=O)N[C@@H](CCCCN)C(=O)O)C(C)C", "note": "[Cdc25CpS216] (H-SRSGLYRSP[pS]MPENLNRPRLKQVEKFKDNTIPDKVKKK-OH)", "values": [
      {"measurement": "Kd", "setting": "[7]", "result": 5.16, "unit": "µM"}
    ]},
    {"molecule": "C=CC(C)(C)OC[C@H]1O[C@H](O[C@@H]2C3=C([C@H](C)COC(C)=O)C[C@H](O)[C@]3(C)/C=C3/[C@@H](COC)CC[C@H]3[C@@H](C)[C@H]2O)[C@H](O)[C@@H](OC(C)=O)[C@@H]1O", "note": "[fusicoccin]", "values": [
      {"measurement": "stabilization factor of 14-3-3 binding with CFTR", "setting": "[8]", "result": 9}
    ]},
    {"molecule": "COCC1CCC2C1=CC1(C)C(=C(C(C)C)C3CCOC31)C(OC1OC3COC(C)(C)OC3C(O)C1O)C(O)C2C", "note": "(stereo not shown) [FC-THF]", "values": [
      {"measurement": "increase in plasma membrane localization", "setting": "[9]", "result": 50, "unit": "%"},
      {"measurement": "stabilization of the interaction of 14-3-3 proteins with TASK3", "setting": "[10]", "result": "around 19 fold"}
    ]},
    {"molecule": "14-3-3ζ (protein) MDKNELVQKAKLAEQAERYDDMAACMKSVTEQGAELSNEERNLLSVAYKNVVGARRSSWRVVSSIEQKTEGAEKKQQMAREYREKIETELRDICNDVLSLLEKFLIPNASQAESKVFYLKMKGDYYRYLAEVAAGDDKKGIVDQSQQAYQEAFEISKKEMQPTHPIRLGLALNFSVFYYEILNSPEKACSLAKTAFDEAIAELDTLSEESYKDSTLIMQLLRDNLTLWTSDTQGDEAEAGEGGEN", "values": [
      {"measurement": "Kd", "setting": "[11]", "result": 2.75, "unit": "µM"},
      {"measurement": "Kd", "setting": "[12]", "result": 5.16, "unit": "µM"},
      {"measurement": "Kd", "setting": "[13]", "result": 2.06, "unit": "µM"}
    ]}
  ]
}
